Data: patent US5004756A, “Anti-cancer activity potentiator” (priority 1988, dated 1991)
Converted amounts (≈) assume the structure as drawn. Read-outs that look alike come from different tables or passages of the source. One block for each molecule: values may come before it.

Legend:
V79/S [1] = experiment: Colony formation (proliferation) inhibition, sensitive Chinese hamster cells (A-I Part 1); format: cell-based
Description: (§1) Sensitive cell line V79/S and ADM-resistant cell line V79/ADM of the Chinese hamster were used, and sensitive cell line PLC/S and cholchicin-resistant cell line PLC/Col, as human hepatoma cells.
(§2) The sensitive cell lines (400 cells) or the resistant cell lines (600 cells) were each incubated for 24 hours in 10 ml of Eagle's MEM medium containing 10% bovine serum. Each of the drugs indicated in Table 1 below was dissolved in ethanol, and 50 microliters of the resulting solution was added to the medium. The incubation was further carried out for 9 days. The concentration of the drug which inhibits 50% of the colony formation (proliferation) of the tumor cells was calculated.
(§3) V79/S and V79/ADM were tested by using all of the drugs described above, but PLC/S and PLC/Col were tested by using only the malate of formula (I), adriamycin and peplomycin.
(§4) The concentrations (micrograms/ml) required to inhibit 50% of the proliferation of the tumor cells, expressed by IC50, are shown in Table 1.

V79/ADM [2] = experiment: Colony formation (proliferation) inhibition, ADM-resistant Chinese hamster cells (A-I Part 1); format: cell-based
Description: as §1, §2, §3, §4

PLC/S [3] = experiment: Colony formation (proliferation) inhibition, sensitive human hepatoma cells (A-I Part 1); format: cell-based; settings: PLC/S; 9 days; Table 1
Description: as §1, §2, §3, §4

PLC/Col [4] = experiment: Colony formation (proliferation) inhibition, colchicin-resistant human hepatoma cells (A-I Part 1); format: cell-based; settings: PLC/Col; 9 days; Table 1
Description: as §1, §2, §3, §4

V79/S [5] = experiment: Anti-cancer activity potentiating action, colony formation, V79/S parent cells (A-III); format: cell-based, Chinese hamster; settings: for IC50: Cricetulus griseus
Description: (§5) The anti-cancer activity potentiating action of the malate of formula (I) was examined using Chinese hamster cells (sensitive cell line V79/S and ADM-resistant cell line V79/ADM), human hepatoma cells (sensitive cell line PLC/S and colchicin-resistant cell line PLC/Col) and mouse leukemia cells (sensitive cell line L5178Y/S) and aclarubicin-resistant cell line L5178Y/ACR).
(§6) Of these tumor cells, the sensitive cells (400 cells) and the resistant cells (600 cells) were each incubated in 10 ml of Eagle's MEM medium containing 10% bovine serum for 24 hours, and then each of the test drugs indicated in Table 6 was added. Thereafter, the incubation was carried out for 9 days. The concentration (IC50 : micrograms/ml) of the test drug required to inhibit 50% of the colony formation (proliferation) of the tumor cells was calculated.
(§7) (A) Chinese hamster V79 cells
(§8) As anti-cancer agents, there were used adriamycin (ADM), aclarubicin (ACR), actinomycin D (ACD), 5-fluorouracil (5-FU), cytarabin (Ara-C), cisplatin (CDDP), methotrexate (MTX), mitomycin C (MMC), nimustine (ACNU), mitoxantrone, etoposide ([…]), vincristine (VCR), bleomycin (BLM) and peplomycin (PEP). For the sensitive cells, the anti-cancer agents were used in combination with 10 micrograms/ml of the malate of formula (I), and for the resistant cells, the anti-cancer agents were used in combination with the malate of formula (I) 3 micrograms/ml, 5 micrograms/ml, and 10 micrograms/ ml.

V79/ADM [6] = experiment: Anti-cancer activity potentiating action, colony formation, V79/ADM resistant cells (A-III); format: cell-based, Chinese hamster; settings: for IC50: Cricetulus griseus
Description: as §5, §6, §7, §8

PLC/S [7] = experiment: Anti-cancer activity potentiating action, colony formation, PLC/S parent cells (A-III); format: cell-based, human; settings: PLC/S; with compound (I) 5 μg/ml
Description: as §5, §6
(§9) As anti-cancer agents, adriamycin (ADM) and peplomycin (PEP) were used in combination with the malate of formula (I) (5 micrograms/ml).

PLC/Col [8] = experiment: Anti-cancer activity potentiating action, colony formation, PLC/Col resistant cells (A-III); format: cell-based, human; settings: PLC/Col; with compound (I) 5 μg/ml
Description: as §5, §6, §9

[9] = system: clinically isolated human cancer cells (lung adenocarcinoma, lung squamous cell carcinoma, osteosarcoma, ovarian carcinoma); experiment: Anti-tumor activity on clinically isolated human cancer cells, morphological changes (A-I Part 2); format: cell-based; settings: 0.2 μg/ml
Description: Lung adenocarcinoma, lung squamous cell carcinoma, osteosarcoma and ovarian carcinoma were selected as clinically isolated human cancer cells, and the anti-tumor activities of various drugs were examined. Specifically, various tumor tissues were individually cut to thin pieces by a razor, and by washing in saline by using a 1 mm mesh, the connective tissues were removed. The resulting solution was centrifuged at 1000 rpm for 1 minute to remove necrotizing substances. Washing with saline gave tumor cells.
They were incubated at 37° for 4 to 8 hours. Thereafter, pumping was carried out to disperse the tissue pieces. Then, centrifugation at 1000 rpm for 5 minutes, cell coating and Giemsa staining were performed. The anti-tumor activity of each drug was examined on the basis of observation of the morphological changes of the tumor cells under a microscope.
The experiment was conducted on two examples of each tumor cells (total 8 examples).

L5178Y/S = experiment: Anti-cancer activity potentiating action, colony formation, mouse leukemia sensitive cells (table head prints PLC/S); format: cell-based; settings: head prints PLC/S (parent cells); for IC50: Mus musculus, L5178Y
Description: as §5, §6
(§10) Adriamycin (ADM) and aclarubicin (ACR) as anti-cancer agents were used in combination with 20 micrograms/ml of the malate of formula (I).

L5178Y/ACR = experiment: Anti-cancer activity potentiating action, colony formation, aclarubicin-resistant mouse leukemia cells (table head prints PLC/ACR); format: cell-based; settings: for IC50: Mus musculus, L5178Y
Description: as §5, §6, §10

[10] = V79/S, with compound (I) 10 μg/ml
[11] = V79/ADM, with compound (I) 3 μg/ml
[12] = read-out: IC50, anti-cancer agent alone
[13] = read-out: IC50 in combination with compound (I)
[14] = alone, Table 7 lower part, read-out: IC50, anti-cancer agent alone
[15] = with compound (I) 20 μg/ml, read-out: IC50 in combination with compound (I)

IC50 (PLC/S [3]): 0.24 µg/mL (≈ 0.163 µM)
IC50 (PLC/Col [4]): 0.19 µg/mL (≈ 0.129 µM)
IC50, anti-cancer agent alone (V79/S [5]; V79/S, alone, Table 6): 1.95 µg/mL
IC50 in combination with compound (I) (V79/S [5]; [10]): 0.0165 µg/mL
IC50, anti-cancer agent alone (V79/ADM [6]; V79/ADM, alone, Table 6): 0.48 µg/mL
IC50 in combination with compound (I) (V79/ADM [6]; [11]): 0.0157 µg/mL
SMILES: Cc1c(N)nc([C@H](CC(N)=O)NC[C@H](N)C(N)=O)nc1C(=O)N[C@H](C(=O)N[C@H](C)[C@@H](O)[C@H](C)C(=O)N[C@H](C(=O)NCCc1nc(-c2nc(C(=O)NCCCN[C@@H](C)c3ccccc3)cs2)cs1)[C@@H](C)O)[C@@H](O[C@@H]1O[C@@H](CO)[C@@H](O)[C@H](O)[C@@H]1O[C@H]1O[C@H](CO)[C@@H](O)[C@H](OC(N)=O)[C@@H]1O)c1c[nH]cn1 [PEP, peplomycin]
IC50 (V79/S [1]; V79/S, 9 days, Table 1): 1.95 µg/mL (≈ 1.32 µM)
IC50 (V79/ADM [2]; V79/ADM, 9 days, Table 1): 0.48 µg/mL (≈ 0.326 µM)
Potentiation activity (V79/S [5]; [10]): 118 times
Potentiation activity (V79/ADM [6]; [11]): 30.5 times
Potentiation activity (PLC/S [7]): 3.0 times
Potentiation activity (PLC/Col [8]): 6.3 times

SMILES: CC[C@@]1(O)C[C@H](O[C@H]2C[C@H](N(C)C)[C@H](O[C@H]3C[C@H](O)[C@H](O[C@H]4CCC(=O)[C@H](C)O4)[C@H](C)O3)[C@H](C)O2)c2c(cc3c(c2O)C(=O)c2c(O)cccc2C3=O)[C@H]1C(=O)OC [ACR, aclarubicin]
IC50 (V79/S [1]; Cricetulus griseus, 216 h): 0.037 µg/mL (≈ 0.0456 µM)
IC50 (V79/ADM [2]; Cricetulus griseus, 216 h): 0.27 µg/mL (≈ 0.333 µM)
Efficacy ratio (rated significant by Fisher's test) [9]: 2/8
IC50 (V79/S [5]; [12]): 0.037 µg/mL
IC50 (V79/S [5]; [13]): 0.027 µg/mL
Potentiation activity (V79/S [5]; [10]): 1.37 times
IC50 (V79/ADM [6]; [12]): 0.27 µg/mL
IC50 (V79/ADM [6]; [13]): 0.024 µg/mL
Potentiation activity (V79/ADM [6]; V79/ADM, with compound (I) 10 μg/ml): 11.3 times
IC50 (L5178Y/S; [14]): 0.019 µg/mL
IC50 (L5178Y/S; [15]): 0.017 µg/mL
Potentiation activity (L5178Y/S; with compound (I) 20 μg/ml): 1.0 times
IC50 (L5178Y/ACR; [14]): 0.07 µg/mL
IC50 (L5178Y/ACR; [15]): 0.043 µg/mL
Potentiation activity (L5178Y/ACR; with compound (I) 20 μg/ml): 1.8 times
